Assay results taken from US5574071A, “Method of lowering cholesterol” (Hoffmann-La Roche Inc., priority 1993, dated 1996).
pEC50: −log10 of the molar value. Where a name gives a salt, the structure may show the parent alone.

Tests used:
[1] = system: LDL receptor in human hepatoma cells (Hep G2); test: Inhibition of cholesterol synthesis in human hepatoma cells (Hep G2), determined by stimulation of LDL receptors (ELISA, C7-LDL antibody); format: cell-based; settings: HepG2, Table B, versus untreated cells, read-out: EC50 (concentration which increases the activity of the LDL receptor by 50% in comparison to the control)
Protocol: Thus, the inhibition of cholesterol :synthesis in human hepatoma cells (Hep G2) was determined on the basis of the stimulation of the LDL receptors induced in parallel. The cells were placed in microtitre plates and treated with the cholesterol synthesis inhibitor. The concentration of the LDL receptor is measured by ELISA methodology, with the C7-LDL antibody being used as the primary antibody. The EC50 values in nM/I in Table B hereinafter correspond to the concentration of cholesterol synthesis inhibitor which increases the activity of the receptor by 50% in comparison to the control, that is, untreated cells.

[2] = Toxicity (LD50 per os in the mouse); settings: in vivo, po

Row | pEC50 [1] | Structure (SMILES) | LD50 [2] [mg/kg]
1 | 8.00 | C=CCN(C)C/C=C/COc1ccc(C(=O)c2ccc(Br)cc2)cc1F [Example 9f, (E)-[4-[4-(allyl-methyl-amino)-but-2-enyloxy]-3-fluoro-phenyl]-(4-bromo-phenyl)-methanone] | –
2 | 6.75 | C=CCN(C)C/C=C/COc1ccc(C(=O)CCCC(C)C)cc1 [Example 9g, (E)-I -[4-[4-(allyl-methyl-amino)-but-2-enyloxy]-phenyl]-5-methyl-hexan-l-one] | –
3 | 7.72 | C=CCN(C)C/C=C/COc1ccc(C(=O)c2ccc(C#N)cc2)cc1F [Example 9j, (E)-[4-[4-(allyl-methyl-amino)-but-2-enyloxy]-3-fluoro-benzoyl]-benzonitrile] | –
4 | 6.66 | C=CCN(C)C/C=C/COc1ccc(C(=O)c2c(F)cccc2F)cc1F [Example 9l, (E)-[4-[4-(allyl-methyl-amino)-but-2-enyloxy]-3-fluoro-phenyl]-(2,6-difluoro-phenyl)-methanone] | –
5 | 7.47 | C=CCN(C)C/C=C/COc1ccc(C(=O)CCC=C(C)C)cc1 [Example 9m, (E)-I -[4-[4-(allyl-methyl-amino)-but-2-enyloxy]phenyl]-5-methyl-hex-4-en-l-one] | –
6 | 6.88 | C=CCN(C)C/C=C/COc1ccc(C(=O)c2ccc(Br)cc2)c(F)c1 [Example 9n, (E)-[4-[4-(allyl-methyl-amino)-but-2-enyloxy]-2-fluoro-phenyl]-(4-bromo-phenyl)-methanone] | –
7 | 7.01 | C=CCN(C)C/C=C/COc1ccc(CC(=O)CCC=C(C)C)cc1F [Example 9p, (E)-1-[4-[4-(allyl-methylamino)-but-2-enyloxy]-3-fluoro-phenyl]-6-methyl-hept-5-en-2-one] | –
8 | 6.65 | C=CCN(C)C/C=C/COc1ccc(CC(=O)c2ccc(Br)cc2)cc1 [Example 9r, (E)-2-[4-[4-(allyl-methyl-amino)-but-2-enyloxy)-phenyl]-1-(4-bromo-phenyl)-ethanone] | –

The next lines start with the compound.

Row | Structure (SMILES) | pEC50 [1] | LD50 [2] [mg/kg]
9 | C=CCN(C)CC=CCOc1ccc(C(=O)c2ccc(Br)cc2)cc1 [Compound 1, trans-4-[[4-(allymethylamino)-2-butenyl]oxy]-4'-bromo-benzophenone] | 7.30 | –
10 | C=CCN(C)Cc1ccc(-c2ccc(C(=O)c3ccc(C#N)cc3)cc2)cc1 [Compound 2, p-[[4'-[(allylmethylamino)methyl]-4-biphenylyl]carbonyl]-benzonitrile] | 7.37 | –
11 | C=CCN(C)CC=CCOc1ccc(C(=O)c2ccc([N+](=O)[O-])cc2)cc1 [Compound 3, trans-4-[[4-(allylmethylamino)-2-butenyl]oxy]-4'-nitro-benzophenone] | 7.20 | –
12 | CN(C)Cc1ccc(-c2ccc(C(=O)c3ccc([N+](=O)[O-])cc3Cl)cc2)cc1 [Compound 4, 2-chloro-4-nitrophenyl 4'-[(dimethylamino)methyl]-4-biphenylyl ketone] | 6.82 | –
13 | C=CCN(C)CC=CCOc1ccc(C(=O)c2ccc(Cl)cc2Cl)cc1 [Compound 7, trans-4-[[4-(allymethylamino)-2-butenyl]oxy]-2',4'-dichloro-benzophenone] | 7.09 | –
14 | CC(C)=CCCC(=O)c1ccc(-c2ccc(CN(C)C)cc2)cc1 [Compound 20] | – | 1250 to 2500
15 | C=CCN(C)CCCCCCOc1ccc(C(=O)c2ccc(Br)cc2)cc1 [Example 9a, [4-[6-(allyl-methyl-amino)-hexyloxy]-phenyl]-(4-bromo-phenyl)-methanone hydrobromide] | 7.29 | –
16 | C=CCN(C)CCCCCCOc1ccc(C(=O)c2ccc(Br)cc2)cc1F [Example 9c, [4-[6-(ally-methyl-amino)-hexyloxy]-3-fluoro-phenyl]-(4-bromo-phenyl)-methanone] | 6.69 | –
17 | C=CCN(C)CCCCCCOc1ccc(C(=O)c2ccc(Br)cc2)c(F)c1 [Example 9d, [4-[6-(allyl-methyl-amino)-hexyloxy]-2-fluoro-phenyl]-(4-bromo-phenyl)-methanone] | 7.24 | –
18 | C=CCN(C)C/C=C/COc1ccc(C(=O)c2ccc(I)cc2)cc1 [Example 9h, (E)-[4-[4-(allyl-methyl-amino)-but-2-enyloxy]-phenyl]-(4-iodo-phenyl)-methanone] | 7.03 | –
19 | CCN(C)C/C=C/COc1ccc(C(=O)c2ccc(Br)cc2)cc1 [Example 9s, (E)-(4-bromo-phenyl)-[4-[4-(ethyl-methyl-amino)-but-2-enyloxy]-phenyl]-methanone hydrobromide] | 6.91 | –
